The subject of the assay is multiple myeloma patients. The assay can be described thus: Survival analysis (PFS and OS) of multiple myeloma patients by molecular cluster, HOVON-65/GMMG-HD4 phase III trial, PAD vs VAD. It counts as in vivo, human. The protocol: Survival analysis was performed on a group of 301 MM patients, treated with Bortezomib (treated with PAD, a combination of bortezomib, adriamycin, and dexamethasone)) or conventional therapy (treated with VAD, a combination of vincristine, adriamycin, and dexamethasone). The patient group was stratified into ten clusters (Table 1).
A total number of 833 patients were included in a large prospective, randomized, phase III trial (HOVON-65/GMMG-HD4). Patients were randomly assigned to three cycles of induction treatment with vincristine, doxorubicin, and dexamethasone (VAD), or Bortezomib, doxorubicin, and dexamethasone (PAD). Both groups received high-dose melphalan with autologous stem-cell rescue followed by maintenance treatment with thalidomide (group assigned to VAD) or Bortezomib (group assigned to PAD) for 2 years (Sonneveld et al., J. Clin. Oncol. Vol. 30, 24:2946-2955, 2012).
The gene expression dataset GSE19784 was used, derived from patients included in the HOVON-65/GMMG-HD4 trial (Broyl et al., Blood 2010 116:2543-2553). A total number of 320 patients were included in the molecular classification and follow-up data were available for 319 patients. Clusters with less than ten patients were not included in this study, the total number of patients was, therefore, 301 (Table 1). Progression-free survival (PFS) was calculated from randomization until progression, relapse or death, whichever came first. Patients who received a non-myeloablative allogeneic stem cell transplantation (AlloSCT) were censored at the date of AlloSCT. Overall survival (OS) was measured from randomization until death from any cause. Patients alive at the date of last contact were censored. The median follow-up was 41 months. Survival analysis was performed using the SPSS software. Kaplan
Meier analysis was performed using the log rank test to assess for significance in survival time between clusters.

We go through one compound from patent US20170166974A1, “METHOD FOR THE TREATMENT OF MULTIPLE MYELOMA” (Erasmus University Medical CEnter Rotherdam, priority 2014, published 2017).

In the case of `CC(C)C[C@H](NC(=O)[C@H](Cc1ccccc1)NC(=O)c1cnccn1)B(O)O` [Bortezomib], the “median PFS” value by setting is: (CD-2 cluster) 32 months; (MF cluster) 27 months; (Myeloid cluster) 32 months; (NF-κB cluster) 32 months; (PR cluster) 19 months. Also, the “difference in median PFS, conventional vs Bortezomib” value (CTA cluster) is “no difference” and the “difference in median PFS, conventional vs Bortezomib” value (hyperdiploid cluster) is reported as “no difference”. For the same compound, the “median OS” value is 54 months (MF cluster), over 41 months (MS cluster) and 22 months (PR cluster). For the same compound, the “PFS longer than in conventional treatment group” value (MS cluster) came to 6 months.
